From patent publication US5013743A, “Selective antibacterial agent against campytobacter” (Takeda Chemical Industries, Ltd., priority 1989, dated 1991)
Converted amounts (≈) assume the structure as drawn.

Columns and labels:
Format in all cases: cell-based
[1] = system: C. pylori KS 13; test: MIC, agar-plate dilution method, test strain E; details: Helicobacter pylori, KS13, 72 h, Brucella agar, 37° C., 3 days
Protocol: (§1) The minimum inhibitory concentration (MIC) of each compound was determined by the agar-plate dilution method based on the standard method advocated by Japan Society of Chemotherapy [cf: Chemotherapy, Jan. '81, p. 76]. The volume of agar medium per plate was 20 ml. Each of the test compounds was dissolved in dimethylsulfoxide at a concentration of 80 mg/ml or 40 mg/ml, and diluted 10 times with sterile distilled water. Furthermore, the aqueous solution of 8 mg/ml or 4 mg/ml was diluted serially 2-fold with sterile distilled water. To 2 ml of the diluted solution was added 18 ml of Brucella agar (BBL Microbiology Systems, Becton Dickinson and Co., Cockeysville, Md. 21030) containing 7% defibrinated horse blood (manufactured by Nippon Bio-supp. Center) and mixed well. Test strains frozen at -80° C. in Brucella broth (BBL) containing 10% horse serum were thawed and inoculated on a Brucella agar slant medium containing 7% defibrinated horse blood. The medium was incubated anaerobically at 37° C. for 3 days in a jar containing a piece of sponge sufficiently impregnated with water and Campy Pak™ (BBL). The organisms grown on the slant medium were collected and suspended in a Brucella broth to correspond to the turbidity of about 10^8 CFU/ml of common bacteria. One platinum loop of inoculum was streaked on the medium plates for determination. The plates were incubated under the same conditions as described above.

[2] = system: C. pylori NCTC 11637; test: MIC, agar-plate dilution method, test strain B; details: Helicobacter pylori, NCTC11637, 72 h, Brucella agar, 37° C., 3 days
Protocol: as §1

[3] = system: C. pylori NCTC 11916; test: MIC, agar-plate dilution method, test strain A; details: Helicobacter pylori, NCTC11916, 72 h, Brucella agar, 37° C., 3 days
Protocol: as §1

[4] = system: C. pylori CLO 6; test: MIC, agar-plate dilution method, test strain G; details: Helicobacter pylori, CLO6, 72 h, Brucella agar, 37° C., 3 days
Protocol: as §1

[5] = system: C. pylori PCL 56; test: MIC, agar-plate dilution method, test strain C; details: Helicobacter pylori, PCL56, 72 h, Brucella agar, 37° C., 3 days
Protocol: as §1, with “above. […] The results are shown in Table 2 and Table 3. | C: C. pylori PCL 56” for “above.”

[6] = system: K. oxytoca TN 1711; test: MIC, standard agar-plate dilution method, aerobic common bacteria; details: Klebsiella oxytoca, TN1711
Source text: (§2) Antibacterial activities of some compounds of the present invention against aerobic common bacteria were examined.

[7] = system: K. pneumoniae DT; test: as above; details: Klebsiella pneumoniae
Source text: as §2

[8] = system: M. morganii IFO 3168; test: as above; details: Morganella morganii, IFO3168
Source text: as §2

[9] = system: C. freundii TN 474; test: as above; details: Citrobacter freundii, TN474
Source text: as §2

[10] = system: E. coli NIHJ JC-2; test: as above; details: Escherichia coli, NIHJJC2
Source text: as §2

[11] = system: S. aureus C 260; test: as above; details: Staphylococcus aureus, C260
Source text: as §2

[12] = system: P. aeruginosa B 184; test: as above; details: Pseudomonas aeruginosa, B184
Source text: as §2

[13] = system: E. coli T 7; test: as above; details: Escherichia coli, T7
Source text: as §2

[14] = system: S. marcecens B 315; test: as above
Source text: as §2

[15] = system: S. aureus 308 A-1; test: as above; details: Staphylococcus aureus, 308A1
Source text: as §2

[16] = system: S. aureus P 114; test: as above; details: Staphylococcus aureus, P114
Source text: as §2

[17] = system: S. aureus N-241; test: as above; details: Staphylococcus aureus, N241
Source text: as §2

[18] = system: S. marcecens IFO 12648; test: as above
Source text: as §2

[19] = system: S. aureus J-108; test: as above; details: Staphylococcus aureus, J108
Source text: as §2

[20] = system: C. diphtheriae Tront; test: as above; details: Corynebacterium diphtheriae
Source text: as §2

[21] = system: P. aeruginosa GN 3407; test: as above; details: Pseudomonas aeruginosa, GN3407
Source text: as §2

[22] = system: P. aeruginosa IFO 3455; test: as above; details: Pseudomonas aeruginosa, IFO3455
Source text: as §2

[23] = system: S. faecium IFO 3128; test: as above; details: Enterococcus faecium, IFO3128
Source text: as §2

[24] = system: P. aeruginosa U 31; test: as above; details: Pseudomonas aeruginosa, U31
Source text: as §2

[25] = system: E. coli 0-111; test: as above; details: Escherichia coli, 0111
Source text: as §2

[26] = system: C. pylori CPY 00111; test: MIC, agar-plate dilution method, test strain D; details: Helicobacter pylori, CPY00111, 72 h, Brucella agar, 37° C., 3 days
Protocol: as §1

| SMILES | MIC [1] [µg/mL] | MIC [2] [µg/mL] | MIC [3] [µg/mL] | MIC [4] [µg/mL] | MIC [5] [µg/mL] | MIC [6] [µg/mL] | MIC [7] [µg/mL] | MIC [8] [µg/mL] | MIC [9] [µg/mL] | MIC [10] [µg/mL] | MIC [11] [µg/mL] | MIC [12] [µg/mL] | MIC [13] [µg/mL] | MIC [14] [µg/mL] | MIC [15] [µg/mL] | MIC [16] [µg/mL] | MIC [17] [µg/mL] | MIC [18] [µg/mL] | MIC [19] [µg/mL] | MIC [20] [µg/mL] | also measured |
| --- | --- | --- | --- | --- | --- | --- | --- | --- | --- | --- | --- | --- | --- | --- | --- | --- | --- | --- | --- | --- | --- |
| Cc1c(OCC(F)(F)F)ccnc1C[S+]([O-])c1nc2ccccc2[nH]1 (stereo not drawn) [Compound 1] | 6.25 (≈ 16.9 µM) | 6.25 (≈ 16.9 µM) | 12.5 (≈ 33.8 µM) | 3.13 (≈ 8.47 µM) | 6.25 (≈ 16.9 µM) | > 400 | > 400 | > 400 | > 400 | > 400 | > 400 | > 400 | > 400 | > 400 | > 400 | > 400 | > 400 | > 400 | > 400 | > 400 | MIC [21]: > 400 µg/mL; MIC [22]: > 400 µg/mL; MIC [23]: > 400 µg/mL; MIC [24]: > 400 µg/mL; MIC [25]: > 400 µg/mL; MIC [26]: 6.25 µg/mL (≈ 16.9 µM) |
| COc1ccc2[nH]c([S+]([O-])Cc3ncc(C)c(OC)c3C)nc2c1 (stereo not drawn) [Compound 2] | 25 (≈ 72.4 µM) | 25 (≈ 72.4 µM) | 25 (≈ 72.4 µM) | 12.5 (≈ 36.2 µM) | 12.5 (≈ 36.2 µM) | > 400 | > 400 | > 400 | > 400 | > 400 | > 400 | > 400 | 40 (≈ 116 µM) | > 400 | > 400 | > 400 | > 400 | > 400 | > 400 | > 400 | MIC [21]: > 400 µg/mL; MIC [22]: > 400 µg/mL; MIC [23]: > 400 µg/mL; MIC [24]: > 400 µg/mL; MIC [25]: > 400 µg/mL; MIC [26]: 12.5 µg/mL (≈ 36.2 µM) |
| Cc1c(OCC(F)(F)F)ccnc1CSc1nc2ccccc2[nH]1 [Compound 6] | 12.5 (≈ 35.4 µM) | 12.5 (≈ 35.4 µM) | 6.25 (≈ 17.7 µM) | 6.25 (≈ 17.7 µM) | 6.25 (≈ 17.7 µM) | > 400 | > 400 | > 400 | > 400 | > 400 | > 400 | > 400 | > 400 | > 400 | > 400 | > 400 | > 400 | > 400 | > 400 | > 400 | MIC [21]: > 400 µg/mL; MIC [22]: > 400 µg/mL; MIC [23]: > 400 µg/mL; MIC [24]: > 400 µg/mL; MIC [25]: 40 µg/mL (≈ 113 µM); MIC [26]: 3.13 µg/mL (≈ 8.86 µM) |
